What all share (assay): Antibiotic susceptibility testing, Vitek System
Common to all, as to type: cell-based, Staphylococcus epidermidis

The subject of experiment [1] is S. epidermidis S1. The protocol:
(§1) Compound 6, synthesized as above, was evaluated as an antimicrobial agent against selected antibiotics resistant Staphylococcus epidermidis. The bacterial strains were obtained from Laboratory (2b56) of the Botany and Microbiology Department, College of Science, King Saud University, Riyadh. The bacterial strains were isolated from the skin of healthy students and identified by an automated antibiotic susceptibility testing system, Vitek System (BioMerieux, France).

Experiment [2] concerns S. epidermidis S3. The procedure: as §1
Experiment [3] deals with S. epidermidis S2. The procedure:
as §1
Further: key: S = susceptible; R = Resistant; I = intermediate.

As to `C[C@H]1COc2c(N3CCN(C)CC3)c(F)cc3c(=O)c(C(=O)O)cn1c23` [Levofloxacin], the “susceptibility to standard antibiotics” value in experiment [1] is given as “S”; in experiment [2], “S”; in experiment [3], “R”.
With `CO[C@H]1/C=C/O[C@@]2(C)Oc3c(C)c(O)c4c(O)c(c(/C=N/N5CCN(C)CC5)c(O)c4c3C2=O)NC(=O)/C(C)=C\C=C\[C@H](C)[C@H](O)[C@@H](C)[C@@H](O)[C@@H](C)[C@H](OC(C)=O)[C@@H]1C` [Rifampin], the “susceptibility to standard antibiotics” value in experiment [1] is on record as “S”; in experiment [2], “R”; in experiment [3], “R”.
As to `CC(=O)NC[C@H]1CN(c2ccc(N3CCOCC3)c(F)c2)C(=O)O1` [Linezolid], the “susceptibility to standard antibiotics” value in experiment [1] is “S”; in experiment [2] it was “R”; in experiment [3], “R”.
For `CC(=O)O[C@H]1C[C@@]2(C)[C@@H](C[C@@H](O)[C@H]3[C@@]4(C)CC[C@@H](O)[C@@H](C)[C@@H]4CC[C@@]32C)/C1=C(\CCC=C(C)C)C(=O)O` [Fusidic Acid], the results for the “susceptibility to standard antibiotics” value in experiment [1], in experiment [2] and in experiment [3] were “S”, “R” and “R”, respectively.
For `COc1c(N2C[C@@H]3CCCN[C@@H]3C2)c(F)cc2c(=O)c(C(=O)O)cn(C3CC3)c12` [Moxifloxacin], the “susceptibility to standard antibiotics” value is reported as “S” in experiment [1], “S” in experiment [2] and “R” in experiment [3].
On to `CN(C)[C@@H]1C(O)=C(C(N)=O)C(=O)[C@@]2(O)C(O)=C3C(=O)c4c(O)cccc4[C@@](C)(O)[C@H]3C[C@@H]12` [Tetracycline], for which the “susceptibility to standard antibiotics” value in experiment [1], in experiment [2] and in experiment [3] was “S” each time.
Take `CCC[C@@H]1C[C@@H](C(=O)N[C@@H]([C@H]2O[C@H](SC)[C@H](O)[C@@H](O)[C@H]2O)[C@H](C)Cl)N(C)C1` [Clindamycin]: the “susceptibility to standard antibiotics” value in experiment [1] is given as “S”; in experiment [2], “R”; in experiment [3] it was “R”.
For the compound `C/C(=C\C(=O)OCCCCCCCCC(=O)O)C[C@@H]1OC[C@H](C[C@@H]2O[C@H]2[C@@H](C)[C@H](C)O)[C@@H](O)[C@H]1O` [Mupirocin], the “susceptibility to standard antibiotics” value is on record as “S” in experiment [1], “R” in experiment [2] and “R” in experiment [3].
In the case of `Cc1onc(-c2ccccc2)c1C(=O)N[C@@H]1C(=O)N2[C@@H]1SC(C)(C)[C@@H]2C(=O)O` [Oxacillin], the results for the “susceptibility to standard antibiotics” value in experiment [1], in experiment [2] and in experiment [3] were “S”, “R” and “R”, respectively.
Consider Gentamicin, for which the “susceptibility to standard antibiotics” value in experiment [1], in experiment [2] and in experiment [3] was “S” each time.
As for `O=C(O)c1cn(C2CC2)c2cc(N3CCNCC3)c(F)cc2c1=O` [Ciprofloxacin], the results for the “susceptibility to standard antibiotics” value in experiment [1], in experiment [2] and in experiment [3] were “S”, “R” and “R”, respectively.
With `C[C@@H]1O[C@@H]1P(=O)(O)O` [Fosfomycin], the “susceptibility to standard antibiotics” value in experiment [1], in experiment [2] and in experiment [3] was “S” throughout.
On to `C[C@@H](O)[C@H]1C(=O)N2C(C(=O)O)=C(SCCN=CN)C[C@H]12` [Lmipenem], for which the “susceptibility to standard antibiotics” value in experiment [1], in experiment [2] and in experiment [3] was “S” each time.
Teicoplanin: the “susceptibility to standard antibiotics” value is on record as “S” in experiment [1], “S” in experiment [2] and “R” in experiment [3].
`CC[C@H]1OC(=O)[C@H](C)[C@@H](O[C@H]2C[C@@](C)(OC)[C@@H](O)[C@H](C)O2)[C@H](C)[C@@H](O[C@@H]2O[C@H](C)C[C@H](N(C)C)[C@H]2O)[C@](C)(O)C[C@@H](C)C(=O)[C@H](C)[C@@H](O)[C@]1(C)O` [Erythromycin]: the “susceptibility to standard antibiotics” value in experiment [1], in experiment [2] and in experiment [3] was “R” throughout.
As for `CCCCCCCCCC(=O)N[C@@H](Cc1c[nH]c2ccccc12)C(=O)N[C@H](CC(N)=O)C(=O)N[C@@H](CC(=O)O)C(=O)N[C@@H]1C(=O)NCC(=O)N[C@@H](CCCN)C(=O)N[C@@H](CC(=O)O)C(=O)N[C@H](C)C(=O)N[C@@H](CC(=O)O)C(=O)NCC(=O)N[C@H](CO)C(=O)N[C@@H]([C@H](C)CC(=O)O)C(=O)N[C@@H](CC(=O)c2ccccc2N)C(=O)O[C@@H]1C` [Daptomycin], the “susceptibility to standard antibiotics” value is given as “S” in experiment [1], “R” in experiment [2] and “R” in experiment [3].
For the compound `CN[C@H](CC(C)C)C(=O)N[C@H]1C(=O)N[C@@H](CC(N)=O)C(=O)N[C@H]2C(=O)N[C@H]3C(=O)N[C@H](C(=O)N[C@H](C(=O)O)c4cc(O)cc(O)c4-c4cc3ccc4O)[C@H](O)c3ccc(c(Cl)c3)Oc3cc2cc(c3O[C@@H]2O[C@H](CO)[C@@H](O)[C@H](O)[C@H]2O[C@H]2C[C@](C)(N)[C@H](O)[C@H](C)O2)Oc2ccc(cc2Cl)[C@H]1O` [Vancomycin], the “susceptibility to standard antibiotics” value is reported as “S” in experiment [1], “S” in experiment [2] and “R” in experiment [3].
